For 28 molecules, IC50 results are on record in patent publication US20260297070A1, “CYCLIC [COMPOUND LEFT OUT] WRN INHIBITORS” (Nimbus Wadjet, Inc., priority 2023, published 2026).

This assay concerns the target T1, human Werner helicase (WRN-BV08, Uniprot Q14191, amino acids 517-1235 with L1074F point mutation) (Homo sapiens, UniProt Q14191, L1074F).
T1 construct: Uniprot Q14191, amino acids 517-1235 with L1074F point mutation; TEV-cleavable 8×His (C, cleaved yes); made in house; host or cells: Sf9 insect cells (baculovirus)
Description: WRN (BV08) ADP-Glo Assay. In kind it is biochemical. The settings on record: 0.15 nM WRN, 5 μM ATP, 0.1 nM DNA duplex, 15 min preincubation, 60 min at 25° C., pH 7.5, 1% DMSO; read-out: ADP-Glo_hWRN_IC50. The essentials:
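Untagged WRN (Sf9-expressed, TEV-cleaved) at 0.15 nM was preincubated 15 min at 25 °C with compound, then reacted 60 min at 25 °C with 5 μM ATP and 0.1 nM DNA duplex in Bicine pH 7.5, 1 mM MgCl2. ADP-Glo luminescence gave % inhibition; IC50 by four-parameter fit.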
(In general: ADP-Glo first removes unused ATP, then detects ADP through luciferase.)

Each structure is given as a SMILES string. Some results are limits rather than exact numbers.

T1 sequence (Q14191 with tags, fused parts or gaps L1074F limits assumed): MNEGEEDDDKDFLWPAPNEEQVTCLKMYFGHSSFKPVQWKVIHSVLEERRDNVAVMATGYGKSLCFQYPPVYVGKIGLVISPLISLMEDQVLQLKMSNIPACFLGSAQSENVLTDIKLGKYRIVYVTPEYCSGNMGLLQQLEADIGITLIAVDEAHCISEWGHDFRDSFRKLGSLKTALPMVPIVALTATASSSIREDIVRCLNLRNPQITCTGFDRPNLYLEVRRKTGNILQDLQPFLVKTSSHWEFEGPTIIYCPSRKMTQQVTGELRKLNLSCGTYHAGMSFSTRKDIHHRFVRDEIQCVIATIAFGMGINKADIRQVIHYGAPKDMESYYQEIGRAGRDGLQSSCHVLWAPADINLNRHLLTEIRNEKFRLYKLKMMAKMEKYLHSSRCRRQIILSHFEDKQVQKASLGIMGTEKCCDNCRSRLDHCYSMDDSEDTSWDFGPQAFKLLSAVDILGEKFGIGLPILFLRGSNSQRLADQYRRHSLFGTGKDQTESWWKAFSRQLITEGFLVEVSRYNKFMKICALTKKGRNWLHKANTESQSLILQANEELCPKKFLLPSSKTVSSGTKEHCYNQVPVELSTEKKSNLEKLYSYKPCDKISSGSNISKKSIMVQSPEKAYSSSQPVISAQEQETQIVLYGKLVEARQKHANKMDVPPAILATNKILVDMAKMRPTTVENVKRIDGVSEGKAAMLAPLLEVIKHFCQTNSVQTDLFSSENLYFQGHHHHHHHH

As for `COc1cc(CN(C(=O)C(c2ccc(-c3ccc(F)c(F)c3)cc2F)n2cc(C#N)cn2)[C@@H]2C=CS(=O)(=O)C2)ccn1` (single isomer, unassigned) [I-712, (2R*)-2-(4-cyano-1H-pyrazol-1-yl)-N-[(3R)-1,1-dioxo-2,3-dihydro-1lambda6-thiophen-3-yl]-N-[(2-methoxypyridin-4-yl)methyl]-2-{3,3′,4′-trifluoro-[1,1′-biphenyl]-4-yl}acetamide], the IC50 lay in the range of 0.5 to 5 µM.

As for `COc1cc(CN(C(=O)C(C(=O)N(C)CC2CC(F)(F)C2)c2ccc(-c3ccc(F)c(F)c3)cc2F)[C@@H]2C=CS(=O)(=O)C2)ccn1` (stereo partly drawn) [I-822, N-[(3,3-difluorocyclobutyl)methyl]-N′-[(3R)-1,1-dioxo-2,3-dihydro-1lambda6-thiophen-3-yl]-N′-[(2-methoxypyridin-4-yl)methyl]-N-methyl-2-{3,3′,4′-trifluoro-[1,1′-biphenyl]-4-yl}propanediamide], the IC50 is below 0.5 µM.

For `COc1cc(CN(C(=O)C(c2ccc(-c3ccc(F)c(F)c3)cc2F)n2cc(C(C)(C)O)cn2)[C@@H]2C=CS(=O)(=O)C2)ccn1` (stereo partly drawn) [I-758, N-[(3R)-1,1-dioxo-2,3-dihydro-1lambda6-thiophen-3-yl]-2-[4-(2-hydroxypropan-2-yl)-1H-pyrazol-1-yl]-N-[(2-methoxypyridin-4-yl)methyl]-2-{3,3′,4′-trifluoro-[1,1′-biphenyl]-4-yl}acetamide], the IC50 was in the range of 0.5 to 5 µM.

For the molecule `O=C(NC(Cc1c[nH]c2ccccc12)C(=O)N(Cc1ccncc1)C1C=CS(=O)(=O)C1)c1ccc(F)cc1` (single isomer, unassigned) [I-561], the IC50 was above 50 µM.

For the molecule `O=C(Cc1ccc(-n2cccc2)cc1)N(C1C=CS(=O)(=O)C1)[C@H]1CCOc2ccccc21` (stereo partly drawn) [I-550, N-[(4S)-3,4-dihydro-2H-1-benzopyran-4-yl]-N-(1,1-dioxo-2,3-dihydro-1lambda6-thiophen-3-yl)-2-[4-(1H-pyrrol-1-yl)phenyl]acetamide], the IC50 is above 50 µM.

For `O=C(Cc1nc(C2CCCC2)cs1)N(Cc1ccncc1)C1C=CS(=O)(=O)C1` (stereo not shown) [I-440, 2-(4-cyclopentyl-1,3-thiazol-2-yl)-N-(1,1-dioxo-2,3-dihydro-1lambda6-thiophen-3-yl)-N-[(pyridin-4-yl)methyl]acetamide], the IC50 is above 50 µM.

Consider `O=C(Cc1ccc(C2CC2)cc1)N(Cc1ccncc1)C1C=CS(=O)(=O)C1` (stereo not shown) [I-287, 2-(4-cyclopropylphenyl)-N-(1,1-dioxo-2,3-dihydro-1lambda6-thiophen-3-yl)-N-[(pyridin-4-yl)methyl]acetamide], for which the IC50 is 5 to 10 µM.

For the molecule `Cc1cccn1-c1ccc(CC(=O)N(Cc2ccncn2)C2C=CS(=O)(=O)C2)c(F)c1` (stereo not shown) [I-181, N-(1,1-dioxo-2,3-dihydro-1lambda6-thiophen-3-yl)-2-[2-fluoro-4-(2-methyl-1H-pyrrol-1-yl)phenyl]-N-[(pyrimidin-4-yl)methyl]acetamide], the IC50 was 0.5 to 5 µM.

As to `O=C(CCc1cccc(OC(F)(F)F)c1)N(Cc1ccncc1)C1C=CS(=O)(=O)C1` (stereo not shown) [I-508, N-(1,1-dioxo-2,3-dihydro-1lambda6-thiophen-3-yl)-N-[(pyridin-4-yl)methyl]-3-[3-(trifluoromethoxy)phenyl]propanamide], the IC50 is above 50 µM.

In the case of `O=C(/C=C/c1ccccc1)N(Cc1ccncc1)C1C=CS(=O)(=O)C1` (stereo not shown) [I-530, (2E)-N-(1,1-dioxo-2,3-dihydro-1lambda6-thiophen-3-yl)-3-phenyl-N-[(pyridin-4-yl)methyl]prop-2-enamide], the IC50 is above 50 µM.

As for `COc1cc(CN(C(=O)Cc2ccc(OC3CC3)cc2)C2C=CS(=O)(=O)C2)ccn1` (stereo not shown) [I-588, 2-(4-cyclopropoxyphenyl)-N-(1,1-dioxo-2,3-dihydro-1lambda6-thiophen-3-yl)-N-[(2-methoxypyridin-4-yl)methyl]acetamide], the IC50 was in the range of 10 to 50 µM.

`COc1cc(CN(C(=O)C(OC)c2ccc(-c3ccc(F)cc3)cc2F)C2C=CS(=O)(=O)C2)ccn1` (stereo not shown) [I-71, 2-{3,4′-difluoro-[1,1′-biphenyl]-4-yl}-N-(1,1-dioxo-2,3-dihydro-1lambda6-thiophen-3-yl)-2-methoxy-N-[(2-methoxypyridin-4-yl)methyl]acetamide]: the IC50 is below 0.5 µM.

As for `O=C(CCCc1c[nH]c2ccccc12)N(Cc1ccncc1)C1C=CS(=O)(=O)C1` (stereo not shown) [I-500, N-(1,1-dioxo-2,3-dihydro-1lambda6-thiophen-3-yl)-4-(1H-indol-3-yl)-N-[(pyridin-4-yl)methyl]butanamide], the IC50 was above 50 µM.

For `O=C(Cn1cnc(-c2ccccc2)cc1=O)N(Cc1ccncc1)C1C=CS(=O)(=O)C1` (stereo not shown) [I-325, N-(1,1-dioxo-2,3-dihydro-1lambda6-thiophen-3-yl)-2-(6-oxo-4-phenyl-1,6-dihydropyrimidin-1-yl)-N-[(pyridin-4-yl)methyl]acetamide], the IC50 fell in the range of 10 to 50 µM.

As to `O=C(Cc1ccc(-n2cccc2)cc1)N(Cc1ccc(C2CC2)cn1)C1C=CS(=O)(=O)C1` (stereo not shown) [I-285, N-[(5-cyclopropylpyridin-2-yl)methyl]-N-(1,1-dioxo-2,3-dihydro-1lambda6-thiophen-3-yl)-2-[4-(1H-pyrrol-1-yl)phenyl]acetamide], the IC50 lay in the range of 5 to 10 µM.

In the case of `Cc1cccn1-c1ccc2c(c1)CC(C(=O)N(Cc1ccnc(C(C)(C)O)c1)[C@@H]1C=CS(=O)(=O)C1)O2` (single isomer, unassigned) [I-607], the IC50 is below 0.5 µM.

Turning to `COc1cc(CN(C(=O)Cc2ccc(S(F)(F)(F)(F)F)cc2)C2C=CS(=O)(=O)C2)ccn1` (stereo not shown) [I-29, N-(1,1-dioxo-2,3-dihydro-1lambda6-thiophen-3-yl)-N-[(2-methoxypyridin-4-yl)methyl]-2-[4-(pentafluoro-lambda6-sulfanyl)phenyl]acetamide], the IC50 was below 0.5 µM.

On to `O=C(Cc1ccc2c(c1)COCC2)N(Cc1ccncc1)C1C=CS(=O)(=O)C1` (stereo not shown) [I-642, 2-(3,4-dihydro-1H-2-benzopyran-7-yl)-N-(1,1-dioxo-2,3-dihydro-1lambda6-thiophen-3-yl)-N-[(pyridin-4-yl)methyl]acetamide], for which the IC50 is above 50 µM.

For the molecule `O=C(Cc1ccc(-n2cccc2)cc1)N(CC12CCC(CC1)CC2)C1C=CS(=O)(=O)C1` (stereo not shown) [I-545, N-({bicyclo[2.2.2]octan-1-yl}methyl)-N-(1,1-dioxo-2,3-dihydro-1lambda6-thiophen-3-yl)-2-[4-(1H-pyrrol-1-yl)phenyl]acetamide], the IC50 is above 50 µM.

As for `COc1cc(CN(C(=O)Cn2ncc(-c3ccccc3)c2C)[C@@H]2C=CS(=O)(=O)C2)ccn1` [I-595, N-[(3R)-1,1-dioxo-2,3-dihydro-1lambda6-thiophen-3-yl]-N-[(2-methoxypyridin-4-yl)methyl]-2-(5-methyl-4-phenyl-1H-pyrazol-1-yl)acetamide], the IC50 lay within 0.5 to 5 µM.

Consider `O=C(C1CC(C(F)(F)F)CO1)N(Cc1ccncc1)C1C=CS(=O)(=O)C1` (stereo not shown) [I-651, N-(1,1-dioxo-2,3-dihydro-1lambda6-thiophen-3-yl)-N-[(pyridin-4-yl)methyl]-4-(trifluoromethyl)oxolane-2-carboxamide], for which the IC50 is above 50 µM.

For `COc1cc(CN(C(=O)C(OCC#N)c2ccc(-c3ccc(F)c(F)c3)cc2F)[C@@H]2C=CS(=O)(=O)C2)ccn1` (stereo partly drawn) [I-691, 2-(cyanomethoxy)-N-[(3R)-1,1-dioxo-2,3-dihydro-1lambda6-thiophen-3-yl]-N-[(2-methoxypyridin-4-yl)methyl]-2-{3,3′,4′-trifluoro-[1,1′-biphenyl]-4-yl}acetamide], the IC50 lay in the range of 0.5 to 5 µM.

As to `CC(C)(O)c1ccc(CN(C(=O)Cc2ccc(S(F)(F)(F)(F)F)cc2)C2C=CS(=O)(=O)C2)cc1` (stereo not shown) [I-623, N-(1,1-dioxo-2,3-dihydro-1lambda6-thiophen-3-yl)-N-{[4-(2-hydroxypropan-2-yl)phenyl]methyl}-2-[4-(pentafluoro-lambda6-sulfanyl)phenyl]acetamide], the IC50 fell in the range of 0.5 to 5 µM.

In the case of `O=C(Cc1ccc(-n2cccc2)cc1)N(Cc1cccnc1)C1C=CS(=O)(=O)C1` (stereo not shown) [I-358, N-(1,1-dioxo-2,3-dihydro-1lambda6-thiophen-3-yl)-N-[(pyridin-3-yl)methyl]-2-[4-(1H-pyrrol-1-yl)phenyl]acetamide], the IC50 was 10 to 50 µM.

With `COc1cc(CN(C(=O)C(OC2COC2)c2ccc(-c3ccc(F)c(F)c3)cc2F)[C@@H]2C=CS(=O)(=O)C2)ccn1` (single isomer, unassigned) [I-741, (2R*)-N-[(3R)-1,1-dioxo-2,3-dihydro-1lambda6-thiophen-3-yl]-N-[(2-methoxypyridin-4-yl)methyl]-2-(oxetan-3-yloxy)-2-{3,3′,4′-trifluoro-[1,1′-biphenyl]-4-yl}acetamide], the IC50 was above 50 µM.

Regarding `COc1cc(CN(C(=O)Cn2cc(-c3ccccc3)cn2)C2C=CS(=O)(=O)C2)ccn1` (stereo not shown) [I-94, N-(1,1-dioxo-2,3-dihydro-1lambda6-thiophen-3-yl)-N-[(2-methoxypyridin-4-yl)methyl]-2-(4-phenyl-1H-pyrazol-1-yl)acetamide], the IC50 is 0.5 to 5 µM.

For the molecule `O=C(Cc1ccc(-n2cccc2)cc1)N(Cc1cccc(-n2cccn2)c1)C1C=CS(=O)(=O)C1` (stereo not shown) [I-232, N-(1,1-dioxo-2,3-dihydro-1lambda6-thiophen-3-yl)-N-{[3-(1H-pyrazol-1-yl)phenyl]methyl}-2-[4-(1H-pyrrol-1-yl)phenyl]acetamide], the IC50 was in the range of 5 to 10 µM.

On to `CN(C)C(=O)C(C(=O)N(Cc1ccnc(C(C)(C)O)c1)C1C=CS(=O)(=O)C1)c1ccc(-c2ccc(F)cc2)cc1` (single isomer, unassigned) [I-8, N1-(-1,1-dioxido-2,3-dihydrothiophen-3-yl)-2-(4′-fluoro-[1,1′-biphenyl]-4-yl)-N1-((2-(2-hydroxypropan-2-yl)pyridin-4-yl)methyl)-N3,N3-dimethylmalonamide], for which the IC50 was below 0.5 µM.
